The values that follow come from US20260355151A1, “SPIROCYCLIC DERIVATIVE-CONTAINING SALT OR CRYSTAL FORM, AND PREPARATION METHOD THEREFOR AND USE THEREOF” (SHUJING BIOPHARMA CO., LTD, priority 2022, published 2026).

Series [1] concerns high spontaneous activity induced by MK-801 in mice. The series can be described thus: Inhibition of high spontaneous activity induced by MK-801 in mice. The series is classed as in vivo, male C57Bl/6J mice. How it is done:
Compounds to be tested: compounds in the examples of the present application, self-made.
(§1) Experimental animals: 18-22 g male C57Bl/6J mice, purchased from Shanghai Slack Experimental Animal Co., Ltd.
(§2) before the start of the experiment, animals were randomly grouped according to body weight.
before the experiment, the mice were first adapted to the experimental environment for at least 1 hour. That is, the animals were transferred from the breeding room to the laboratory and moved freely in the cage.
(§3) Drug preparation: taking the compound to be tested, adding pure water and performing ultrasonication.
(§4) The animals were randomly divided into blank group, model group, and administration group according to body weight, 9 mice/group, and the detailed administration information is shown in the following table:
(§5) T-30 min oral administration of compound: compound to be tested or solvent (pure water) was administered orally by gavage, and put into test box (test box size length*width*height=27*27*40 cm) immediately after administration, recording the spontaneous activity of the mice within 30 minutes.
The blank control group was injected with normal saline.
(§6) The activities of these animals (movement distance in the test box) were automatically recorded by the camera, and analyzed with ANY MAZE software, and the ED50 values were calculated.

In another series the target is T1, 5-HT1A receptor (Homo sapiens, UniProt P08908).
T1 sequence (P08908 1-422): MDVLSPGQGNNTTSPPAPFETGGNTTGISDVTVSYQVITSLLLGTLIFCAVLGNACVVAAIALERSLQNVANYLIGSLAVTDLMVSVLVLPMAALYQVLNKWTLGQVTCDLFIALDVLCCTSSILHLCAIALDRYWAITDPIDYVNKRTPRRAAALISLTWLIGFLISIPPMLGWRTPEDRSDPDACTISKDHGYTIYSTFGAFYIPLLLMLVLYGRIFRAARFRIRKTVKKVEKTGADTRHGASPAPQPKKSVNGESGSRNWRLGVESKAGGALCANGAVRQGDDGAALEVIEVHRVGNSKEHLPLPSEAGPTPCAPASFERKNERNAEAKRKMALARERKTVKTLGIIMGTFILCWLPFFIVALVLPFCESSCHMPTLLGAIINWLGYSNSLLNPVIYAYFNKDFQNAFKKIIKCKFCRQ
The series can be described thus: 5-HT1A receptor cAMP agonist test. Format: cell-based. The text has this: The cAMP detection kit was purchased from Cisbio; the HEK293 cell line stably expressing 5-HT1A receptor was constructed by Shanghai Shujing Biotechnology Co., Ltd.; Serotonin, Forskolin and IBMX were purchased from Sigma; ProxiPlate-384-well plates was purchased from PerkinElmer; HBSS was purchased from Thermo Fisher Scientific.
Activation rate (activity %)=(negative control ratio-compound ratio)/(negative control ratio-positive control ratio)×100%

Series [2] relates to high spontaneous activity induced by PCP in mice. The series can be described thus: Inhibition of high spontaneous activity induced by PCP in mice. The series is classed as in vivo, male C57Bl/6J mice.
Source text: Compounds to be tested: compounds of the examples of the present application, self-made.
Phencyclidine hydrochloride (PCP): purchased from Shanghai Yuansi Standard Science Technology Co., Ltd., specification: 5 g.
as §1, §2
before the experiment, the mice were first adapted to the experimental environment for at least 1 hour. That is, animals were transferred from the feeding room to the laboratory, and moved freely in the cage.
as §3, §4, §5
T0 min intraperitoneal injection of modeling drug: 30 minutes after compound administration, the mice were taken out, and administered with PCP (5 mg/kg) by intraperitoneal injection. The blank control group was injected with pure water. After the administration of PCP, the animals were immediately put back into the test box, and the test was continued for 60 minutes.
as §6

For the next series, the target named is T2, TAAR1 receptor (Homo sapiens, UniProt Q96RJ0).
T2 sequence (Q96RJ0 1-339): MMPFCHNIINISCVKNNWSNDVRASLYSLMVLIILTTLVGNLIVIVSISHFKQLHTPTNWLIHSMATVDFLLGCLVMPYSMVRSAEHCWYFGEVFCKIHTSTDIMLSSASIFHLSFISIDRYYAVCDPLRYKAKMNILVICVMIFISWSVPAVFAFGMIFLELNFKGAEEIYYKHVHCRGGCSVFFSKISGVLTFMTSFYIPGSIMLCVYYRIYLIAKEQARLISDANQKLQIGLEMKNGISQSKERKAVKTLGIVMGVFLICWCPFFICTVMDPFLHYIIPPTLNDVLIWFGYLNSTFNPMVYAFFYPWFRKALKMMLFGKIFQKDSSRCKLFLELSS
The series can be described thus: TAAR1 receptor cAMP agonist test. The series is classed as cell-based. Also on record: Emax: dose or concentration left out as unconfirmed. The text has this: The cAMP detection kit was purchased from Cisbio; the […] cell line stably expressing TAAR1 receptor was constructed by Shanghai Shujing Biotechnology Co., Ltd.; IBMX was purchased from Sigma; Phenethylamine (PEA); ProxiPlate-384 well plate was purchased from PerkinElmer; HBSS was purchased from Thermo Fisher Scientific Company.

A short description of series [3]: Equilibrium solubility in water for 24 hours. The series is classed as physicochemical. Particulars: deionized water, 37 °C. Here is the method: Investigating the equilibrium solubility of each hydrochloride crystal form of Compound A in water for 24 hours.
Excess samples of hydrochloride crystal form I and hydrochloride crystal form II of Compound A were weighed and placed in different 10 mL centrifuge tubes, and 1 mL of deionized water was added, sealed with a parafilm, shaking at a constant temperature of 37 °C and 150 rpm for 24 hours; after passing through a 0.45 μm organic filter, the sample was diluted and injected for HPLC analysis.

Series [4] is described as follows: Solid stability experiment (high temperature, high humidity, light). The series is classed as physicochemical. Conditions: for chemical stability: high temperature, high humidity, or illumination, conclusion in words; for degraded at 240 h / degraded at 480 h / degraded at 2040 h: solid, read-out: Increase of total impurities; for degraded at 240 h: day 10; for degraded at 480 h: day 20; for degraded at 2040 h: day 85. How it is done: Investigating the chemical stability of each hydrochloride crystal form of Compound A under high temperature, high humidity, and light conditions.
Appropriate amounts of hydrochloride crystal form I and hydrochloride crystal form II of Compound A were weighed and placed in weighing dishes respectively; three samples for each salt were prepared, and placed respectively in a oven at 60 °C, a drying dish with RH 92.5%, and a stability test chamber with an illumination condition of 5000 lx for 85 days. After mixing all samples evenly at day 0, day 10, day 20, and day 85, samples were taken and dissolved in acetonitrile and water, and the content and impurity changes were detected by HPLC-related substance detection method.

SMILES strings stand for the structures. Structures can show the parent of a compound that is named as a salt. Where two headings read alike, the source gives them in different places.

Regarding `CNC[C@@H]1OCC2(CC2)c2sccc21` (single isomer, unassigned) [Compound A], the “inhibitory effect compared to SEP-363856” value in series [1] (MK-801 model, conclusion in words) is “lower minimum effective dose and stronger inhibitory effect”; in series [2] (PCP model, conclusion in words), “lower minimum effective dose and stronger inhibitory effect”. Moreover, the minimal effective dose in series [1] (Mus musculus, po, 2.5 h, p.o. 30 min before MK-801 0.3 mg/kg i.p., movement distance, 150 min, read-out: MED (minimum effective dose)) came out at 10 mg/kg; in series [2] (Mus musculus, po, 1 h, p.o. 30 min before PCP 5 mg/kg i.p., movement distance, 60 min, read-out: MED (minimum effective dose)), 0.1 mg/kg. Also, the “inhibition of high spontaneous activity induced by MK-801” value in series [1] (p.o., conclusion in words) is “can significantly inhibit the high spontaneous activity induced by MK-801 in mice, and the inhibitory effect is gradually enhanced with the increase of the compound dosage, and there is a good dose-dependent relationship”. Moreover, the Emax at 1 µM at 5-HT1A receptor (activation rate, positive control Serotonin, final concentration 10^−6M, read-out: 5-HT1A Max Act %) was 95.2%. At 5-HT1A receptor (conclusion in words), the “agonistic effect on 5-HT1A receptors” value is listed as “has agonistic effect on 5-HT1A receptors”. Moreover, the “inhibition of high spontaneous activity induced by PCP” value in series [2] (p.o., conclusion in words) was “can significantly inhibit the high spontaneous activity induced by PCP in mice, and the inhibitory effect is gradually enhanced with the increase of the compound dosage, and there is a good dose-dependent relationship”. The “agonist effect on the TAAR1 receptors” value on TAAR1 receptor (conclusion in words) is recorded as “have an agonist effect on the TAAR1 receptors”. Moreover, the Emax on TAAR1 receptor (read-out: TAAR1 Max Act %) was found to be 95.5%.

`CNC[C@@H]1OCC2(CC2)c2sccc21` [Hydrochloride crystal form II, (R)-1-(4′H,6′H-spiro[cyclopropane-1,7′-thieno[3,2-c]pyran]-4′-yl)-N-methylmethylamine] had an Equilibrium solubility in series [3] (1440 min) of 162.30 mg/mL. Further, the chemical stability result in series [4] is given as “good chemical stability”. Further, in series [4] (High temperature of 60 °C), the degraded at 240 h is less than 0.1%, the degraded at 480 h is less than 0.1% and the degraded at 2040 h turned out to be 0.133%.

As usually defined, the solubility (thermodynamic) is solubility found after equilibrating the solid with the medium. For `CNC[C@@H]1OCC2(CC2)c2sccc21` [Hydrochloride crystal form I, (R)-1-(4′H,6′H-spiro[cyclopropane-1,7′-thieno[3,2-c]pyran]-4′-yl)-N-methylmethylamine], the solubility (thermodynamic) at 24 h in series [3] (water) stood at 155 mg/mL. The chemical stability result in series [4] was “good chemical stability”. Also, in series [4] (High humidity of RH 92.5%), the degraded at 240 h was less than 0.1%, the degraded at 480 h is less than 0.1% and the degraded at 2040 h is 0.199%. Besides, in series [4] (Illumination of 5000 lx), the degraded at 240 h was less than 0.1%, the degraded at 480 h is less than 0.1% and the degraded at 2040 h was less than 0.1%.
